The results in this text go back to the NIST ThermoML archive (doi:10.1016/j.jct.2010.10.009).

Numbers after ± are expanded uncertainties.

The conditions of this series: 298.15 K; Crystal; Vacuum Sublimation Drop (Calvet Microcalorimeter).

In the case of `c1ccc2c(c1)CCc1ccccc1C2` [1,2:4,5-dibenzocycloheptane], the “molar enthalpy of sublimation” value was determined as 24.8 ± 0.956 kcal/mol.
